Like-named read-outs stand apart in the source and are kept apart here.
Legend:
HMG-CoA reductase = biological target: T1, HMG-CoA reductase (Rattus norvegicus, UniProt P51639); test: HMG-CoA reductase activity in enzyme preparations; assay type: biochemical, rats; conditions: solubilized enzyme from rat liver microsomes, 14C-HMG-CoA substrate; read-out: IC50, molar concentration of the compound required for 50% inhibition of HMG-CoA reductase
T1 construct: solubilized enzyme preparations from liver microsomes of rats; from tissue; host or cells: rat liver microsomes, solubilized; rats induced with cholestyramine (Cuemid)
T1 sequence (P51639 1-887): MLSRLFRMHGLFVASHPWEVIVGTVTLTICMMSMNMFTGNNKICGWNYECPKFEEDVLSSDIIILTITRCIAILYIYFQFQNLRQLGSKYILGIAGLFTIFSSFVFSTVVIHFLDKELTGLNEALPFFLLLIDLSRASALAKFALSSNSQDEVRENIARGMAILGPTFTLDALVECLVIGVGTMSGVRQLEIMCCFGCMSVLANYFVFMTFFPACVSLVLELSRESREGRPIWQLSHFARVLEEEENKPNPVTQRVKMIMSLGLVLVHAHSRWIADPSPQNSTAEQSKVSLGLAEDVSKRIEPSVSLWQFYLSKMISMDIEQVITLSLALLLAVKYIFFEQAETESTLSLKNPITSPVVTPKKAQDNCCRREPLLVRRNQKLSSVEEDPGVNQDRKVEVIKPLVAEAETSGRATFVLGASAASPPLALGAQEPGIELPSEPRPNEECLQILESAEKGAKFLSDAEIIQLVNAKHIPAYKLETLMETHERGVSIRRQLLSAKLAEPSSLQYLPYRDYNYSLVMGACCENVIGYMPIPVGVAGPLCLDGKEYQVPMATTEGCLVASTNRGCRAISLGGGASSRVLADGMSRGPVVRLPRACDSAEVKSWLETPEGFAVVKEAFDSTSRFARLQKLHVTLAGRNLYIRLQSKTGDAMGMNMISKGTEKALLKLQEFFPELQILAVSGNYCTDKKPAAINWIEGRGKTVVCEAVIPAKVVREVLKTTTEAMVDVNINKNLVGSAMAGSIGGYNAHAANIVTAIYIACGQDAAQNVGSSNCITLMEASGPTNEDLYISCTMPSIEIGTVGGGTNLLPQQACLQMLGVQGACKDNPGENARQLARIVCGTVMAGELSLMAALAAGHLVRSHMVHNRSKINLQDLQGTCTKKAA
Method: The HMG-CoA reductase activity was measured on solubilized enzyme preparations from liver microsomes of rats which, after changing over the day/night rhythm, were induced with cholestyramine (®Cuemid).
The substrate used was (S,R)^14 C-HMG-CoA, and the concentration of NADPH was maintained during the incubation by a regenerating system. ^14 C-mevalonate was removed from the substrate and other products (for example ^14 C-HMG) by column elution, with the elution profile of each individual sample being determined. ^3 H-mevalonate was not included in every test because the determination was of the relative inhibitory effect. In each series of tests, the enzyme-free control, the enzyme-containing normal mixture (=100%) and one with added product, final concentration 10^-5 to 10^-9 M, were treated together. Each individual value was formed as the mean of 3 parallel samples. The significance of the differences between the means for product-free and product-containing samples was assessed by the t test.
The method described above was used to determine the figures for the inhibition of HMG-CoA reductase by the compounds according to the invention (IC50 /mol/liter signifies the molar concentration of the compound required for 50% inhibition): […]

[1] = system: cholesterol biosynthesis in HEP-G2 cells; test: Inhibition of cholesterol biosynthesis in cell cultures of HEP-G2 cells; assay type: cell-based; conditions: Homo sapiens, HepG2, 14C-acetate precursor, read-out: IC50, concentration which brings about 50% inhibition of cholesterol biosynthesis
Method: Monolayers of HEP-G2 cells in lipoprotein-free nutrient medium were pre-incubated with appropriate concentrations of the test substances for a defined time (for example 1 hour) and, after addition of the labeled precursor, for example sodium ^14 C-acetate, incubation was continued (for example for 3 hours). After addition of an internal standard (^3 H-cholesterol) a portion of the cells was hydrolyzed with alkali. The lipids from the hydrolyzed cells were extracted with chloroform/methanol.
This Lipid mixture was, after addition of carrier cholesterol, subjected to preparative thin-layer chromatography, the cholesterol band was visualized with iodine vapor and then isolated, and the amount of ^14 C-cholesterol formed from the ^14 C-precursor was determined by scintigraphy. Cellular protein was determined in an aliquot of the cells, so that it is possible to calculate the amount of ^14 C-cholesterol formed per unit time per mg of cellular protein. Comparison of this figure with the amount of ^14 C-cholesterol formed per mg of cellular protein and unit time in a culture treated in the same way but free of test substance yielded the inhibitory effect of the particular test product on cholesterol biosynthesis of HEP-G2 cell cultures. […]

[2] = rat; cited from earlier work
[3] = tests on humans; cited from earlier work

IC50 (HMG-CoA reductase) [nM] | SMILES | IC50 [1] [nM] | cholesterol-lowering action [2] | cholesterol-lowering action [3]
1.7 | CC(C)c1nnc(-c2ccc(F)cc2)c(-c2ccc(F)cc2)c1/C=C/[C@@H](O)C[C@@H](O)CC(=O)O (relative stereo) [Example 13a, Sodium 7-[3,4-di(4-fluorophenyl)-6-isopropylpyridazin-5-yl]-3,5-dihydroxy-6-heptenoate] | 50 | – | –
– | CC(O)(CC(=O)O)CC(=O)O [3-Hydroxy-3-methylglutaric acid] | – | significant cholesterol-lowering action | significant cholesterol-lowering action
1.3 | CC(C)c1nnc(-c2ccc(F)cc2)c(-c2ccc(F)cc2)c1/C=C/[C@@H](O)C[C@@H](O)CC(=O)O [Example 19a, Sodium 7-[3,4-di(4-fluorophenyl)-6-isopropylpyridazin-5-yl]-3(R),5(S)-dihydroxy-6(E)-heptenoate] | 25 | – | –

Reference: patent US4946841A, “Pyridazine 3,5-dihydroxy carboxylic acids and derivatives thereof, the use thereof for hypercholesterolemia” (Hoechst Aktiengesellachaft, priority 1988, dated 1990)
